Patent publication US10322118B2, “Compounds and methods for inhibiting Cif virulence factor” (priority 2012, dated 2019)
Counter-ions that a name gives are not always drawn.

Key:
Cif [1] = molecular target: T1, Cif (Pseudomonas aeruginosa (strain UCBPP-PA14), UniProt A0A0H2ZD27); experiment: Secondary screen (sextuplicate) with fluorogenic substrate CMNGC; type: biochemical; settings: for % Inhibition, Mean ± SD / % Inhibition, plate 1 / % Inhibition, plate 2 / % Inhibition, plate 3 / % Inhibition, plate 4 / % Inhibition, plate 5 / % Inhibition, plate 6: secondary screen, 10 μM; for % Inhibition, Mean ± SD: mean of six plates; for % Inhibition, plate 1: plate number 1; for % Inhibition, plate 2: plate number 2; for % Inhibition, plate 3: plate number 3; for % Inhibition, plate 4: plate number 4; for % Inhibition, plate 5: plate number 5; for % Inhibition, plate 6: plate number 6;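 on all read-outs here: purified enzyme assay in 96-well plates, 200 µL volume, fluorescence recorded each minute across a 60 min reaction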
Cif [2] = molecular target: T1, Cif; experiment: Primary high throughput screen with fluorogenic substrate CMNGC; type: biochemical; settings: primary screen; test compounds at 10 μM, 1 μM Cif, 25 μM CMNGC, 60 minutes;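 further: fluorescence of 200 µL reactions in 96-well plates read on a plate reader, inhibitor at tenfold molar excess over Cif enzyme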
[3] = read-out: % Inhibition, Mean ± SD
[4] = read-out: % Inhibition, plate 1
[5] = read-out: % Inhibition, plate 2
[6] = read-out: % Inhibition, plate 3
[7] = read-out: % Inhibition, plate 4
[8] = read-out: % Inhibition, plate 5
[9] = read-out: % Inhibition, plate 6

T1 sequence (A0A0H2ZD27 25-319 limits assumed): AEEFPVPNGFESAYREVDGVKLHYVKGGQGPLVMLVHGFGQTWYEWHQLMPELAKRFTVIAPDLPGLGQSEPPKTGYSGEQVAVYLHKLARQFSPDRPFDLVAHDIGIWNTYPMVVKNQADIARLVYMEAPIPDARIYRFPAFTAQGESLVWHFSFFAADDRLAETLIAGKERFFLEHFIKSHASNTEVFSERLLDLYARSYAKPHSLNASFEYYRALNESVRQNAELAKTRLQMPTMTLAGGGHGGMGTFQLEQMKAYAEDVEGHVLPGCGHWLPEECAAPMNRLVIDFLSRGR

Compound	inhibition at 10 µM (Cif [1]; [3])	inhibition at 10 µM (Cif [1]; [4])	inhibition at 10 µM (Cif [1]; [5])	inhibition at 10 µM (Cif [1]; [6])	inhibition at 10 µM (Cif [1]; [7])	inhibition at 10 µM (Cif [1]; [8])	inhibition at 10 µM (Cif [1]; [9])	inhibition at 10 µM (Cif [2])	% Inhibition, Mean ± SD (Cif [1])	% Inhibition, plate 1 (Cif [1])	% Inhibition, plate 2 (Cif [1])	% Inhibition, plate 3 (Cif [1])	% Inhibition, plate 4 (Cif [1])	% Inhibition, plate 5 (Cif [1])	% Inhibition, plate 6 (Cif [1])	% Inhibition (Cif [2])
C[N+](C)(C)CC(=O)O [Betaine hydrochloride]	13 ± 6%	6%	10%	9%	17%	20%	18%	33%	–	–	–	–	–	–	–	–
O=C(CCCCCCC(=O)Nc1ccccc1)NO [Vorinostat]	13 ± 6%	5%	13%	8%	14%	18%	22%	35%	–	–	–	–	–	–	–	–
CN(C)CCCN1c2ccccc2Sc2ccc(C(F)(F)F)cc21 [Triflupromazine hydrochloride]	2 ± 6%	4%	10%	-2%	1%	8%	-6%	33%	–	–	–	–	–	–	–	–
S=c1nc[nH]c2nc[nH]c12 [Mercaptopurine]	13 ± 5%	5%	15%	19%	15%	15%	11%	32%	–	–	–	–	–	–	–	–
C[C@]12CCC(=O)C=C1C=C[C@@H]1[C@@H]2CC[C@@]2(C)[C@H]1CC[C@@]21CCC(=O)O1 [Canrenone]	24 ± 5%	16%	27%	20%	24%	28%	27%	36%	–	–	–	–	–	–	–	–
CC(=O)[C@@]1(O)CC[C@H]2[C@@H]3C[C@H](C)C4=CC(=O)C=C[C@]4(C)[C@@]3(F)[C@@H](O)C[C@@]21C [Fluorometholone]	18 ± 2%	18%	15%	19%	16%	21%	16%	31%	–	–	–	–	–	–	–	–
O=C1CC2(CCCC2)CC(=O)N1CCCCN1CCN(c2ncccn2)CC1 [Buspirone hydrochloride]	-3 ± 4%	0%	-3%	0%	-1%	-2%	-11%	33%	–	–	–	–	–	–	–	–
CO[C@@]1(NC(=O)Cc2cccs2)C(=O)N2C(C(=O)O)=C(COC(N)=O)CS[C@@H]21 [Cefoxitin sodium]	10 ± 8%	-3%	16%	5%	9%	19%	14%	32%	–	–	–	–	–	–	–	–
Nc1nc(N)c2nc(-c3ccccc3)c(N)nc2n1 [Triamterene]	19 ± 5%	15%	17%	18%	21%	28%	16%	35%	–	–	–	–	–	–	–	–
COC(=O)/C=C/C(=O)OC [Dimethyl fumarate]	5 ± 4%	3%	-2%	8%	7%	9%	6%	36%	–	–	–	–	–	–	–	–
CC(C)Cc1ccc(C(C)C(=O)O)cc1 (stereo not shown) [Ibuprofen]	7 ± 5%	1%	6%	5%	8%	15%	7%	48%	–	–	–	–	–	–	–	–
C=CCc1ccc(O)c(OC)c1 [Eugenol]	3 ± 4%	4%	0%	7%	4%	6%	-4%	32%	–	–	–	–	–	–	–	–
Candicidin	–	–	–	–	–	–	–	–	15 ± 7%	3%	13%	17%	19%	23%	18%	41%
NC[C@H]1O[C@H](O[C@H]2[C@H](O)[C@@H](O[C@H]3O[C@H](CO)[C@@H](O)[C@H](N)[C@H]3O)[C@H](N)C[C@@H]2N)[C@H](N)C[C@@H]1O [Tobramycin]	-8 ± 7%	-5%	-7%	-5%	-12%	0%	-21%	40%	–	–	–	–	–	–	–	–
C=CC1=C(C)c2cc3[nH]c(cc4nc(cc5[nH]c(cc1n2)c(C)c5CCC(=O)O)C(CCC(=O)O)=C4C)c(C)c3C=C [Protoporphyrin ix]	20 ± 7%	12%	16%	21%	18%	28%	29%	46%	–	–	–	–	–	–	–	–
C[C@]12CC[C@H]3C(=CCc4cc(O)ccc43)[C@@H]1CCC2=O [Equilin]	–	–	–	–	–	–	–	71%	–	–	–	–	–	–	–	–
O=C(CCCN1CCN(c2ccccn2)CC1)c1ccc(F)cc1 [Azaperone]	–	–	–	–	–	–	–	79%	–	–	–	–	–	–	–	–
CCN(CC)CCOc1ccc2c(c1)C(=O)c1cc(OCCN(CC)CC)ccc1-2 [Tilorone]	6 ± 4%	4%	5%	5%	11%	10%	0%	36%	–	–	–	–	–	–	–	–
C=C(NC(=O)C(=C)NC(=O)c1csc(C2=N[C@@H]3c4csc(n4)[C@H]4NC(=O)c5csc(n5)[C@H]([C@](C)(O)[C@@H](C)O)NC(=O)[C@H]5CSC(=N5)/C(=C/C)NC(=O)[C@H]([C@@H](C)O)NC(=O)c5csc(n5)[C@]3(CC2)NC(=O)[C@H](C)NC(=O)C(=C)NC(=O)[C@H](C)NC(=O)[C@H]([C@@H](C)CC)N[C@@H]2C=Cc3c([C@H](C)O)cc(nc3[C@H]2O)C(=O)O[C@@H]4C)n1)C(N)=O [Thiostrepton]	28 ± 12%	14%	15%	25%	27%	43%	42%	46%	–	–	–	–	–	–	–	–
C[C@@H]1C[C@H]2[C@@H]3CCC4=CC(=O)C=C[C@]4(C)[C@@]3(F)[C@@H](O)C[C@]2(C)[C@H]1C(=O)CO [Desoxymetasone]	–	–	–	–	–	–	–	–	39 ± 4%	34%	42%	34%	40%	42%	41%	66%
CCCCCCCCCCCCCCCCOP(=O)([O-])OCC[N+](C)(C)C [Miltefosine]	8 ± 4%	4%	3%	11%	10%	11%	11%	34%	–	–	–	–	–	–	–	–
CN1CCCC(n2nc(Cc3ccc(Cl)cc3)c3ccccc3c2=O)CC1 (stereo not shown) [Azelastine hydrochloride]	34 ± 4%	30%	31%	33%	34%	42%	30%	48%	–	–	–	–	–	–	–	–
N#C[C@@H]1C[C@@H]2C[C@@H]2N1C(=O)[C@@H](N)C12CC3CC(CC(O)(C3)C1)C2 [Saxagliptin]	5 ± 4%	5%	0%	6%	6%	11%	3%	35%	–	–	–	–	–	–	–	–
Nc1nc(Cl)nc2c1ncn2[C@@H]1O[C@H](CO)[C@@H](O)[C@@H]1F [Clofarabine]	12 ± 5%	7%	8%	7%	13%	20%	16%	43%	–	–	–	–	–	–	–	–
CC(C(=O)O)c1cccc(C(=O)c2ccccc2)c1 (stereo not shown) [Ketoprofen]	9 ± 5%	2%	14%	9%	8%	15%	4%	34%	–	–	–	–	–	–	–	–
CC(=O)[C@H]1CC[C@H]2[C@@H]3CC=C4C[C@@H](OC(=O)CCC(=O)O)CC[C@]4(C)[C@H]3CC[C@]12C [Pregnenolone succinate]	–	–	–	–	–	–	–	–	12 ± 4%	6%	12%	8%	13%	17%	15%	34%
C[C@H]1O[C@H](O[C@H]2[C@H](O)[C@@H](O)[C@@H](O[C@H]3[C@H](O)[C@@H](O)C(O)O[C@@H]3CO)O[C@@H]2CO)[C@H](O)[C@@H](O)[C@@H]1N[C@H]1C=C(CO)[C@@H](O)[C@H](O)[C@H]1O (stereo partly shown) [Acarbose]	–	–	–	–	–	–	–	47%	–	–	–	–	–	–	–	–
O=C([O-])c1ccccc1-c1c2cc(Br)c(=O)cc-2oc2[c]([Hg+])c([O-])c(Br)cc12.[Na+].[Na+].[OH-] [Merbromin]	–	–	–	–	–	–	–	–	–	–	–	–	–	–	–	47%
